What is called IC50 is the point on the concentration scale where inhibition reaches its midpoint.

Where only a bound is given, the exact number is not on record here.

In test [1] the target is T1, cGAS (Homo sapiens, UniProt Q8N884). Briefly: Cellular assay to measure cGAS activity (IFNb AlphaLISA in THP1 cells stimulated by RDG-Adenovirus-GFP). Type of test: cell-based. The arrangement: host or cells: THP1 cells differentiated with PMA and stimulated with RDG-Adenovirus-GFP. To be noted: PMA-differentiated THP1 cells, RDG-Adenovirus-GFP at 1000 MOI; inhibition of IFNb production as marker for cGAS activity. The gist of the method:
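PMA-differentiated THP1 cells were infected with RDG-Adenovirus-GFP at 1000 MOI for 4 h, then exposed overnight to test compounds. IFNb in the supernatant was quantified by AlphaLISA as a cGAS activity marker, and IC50 was fitted with a 4-parameter logistic equation.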
Background: Bead proximity is the source of the signal in Alpha formats.

Test [2] has as its target T1, cGAS. Briefly: In vitro inhibition assay of cGAS activity (cGAMP production, RapidFire mass spectrometry). Format: biochemical. On the set-up: Insert cDNA encoding full-length of human cGAS; His6; made in house; host or cells: E. coli BL21(DE3). The note with it: 10 nM recombinant human cGAS, 60 nM 75-bp dsDNA, 50 μM ATP, 50 μM GTP, 3 hrs. Summed up: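 His6-tagged full-length human cGAS (10 nM, E. coli-expressed) was incubated for 3 hrs at ambient temperature with 60 nM 75-bp dsDNA, 50 μM ATP and 50 μM GTP in Tris pH 7.5/MgCl2 buffer with compound dilutions. cGAMP was quantified by RapidFire mass spectrometry against an internal standard, and IC50 was obtained by 4-parameter logistic fit.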

T1 sequence (Q8N884 whole entry): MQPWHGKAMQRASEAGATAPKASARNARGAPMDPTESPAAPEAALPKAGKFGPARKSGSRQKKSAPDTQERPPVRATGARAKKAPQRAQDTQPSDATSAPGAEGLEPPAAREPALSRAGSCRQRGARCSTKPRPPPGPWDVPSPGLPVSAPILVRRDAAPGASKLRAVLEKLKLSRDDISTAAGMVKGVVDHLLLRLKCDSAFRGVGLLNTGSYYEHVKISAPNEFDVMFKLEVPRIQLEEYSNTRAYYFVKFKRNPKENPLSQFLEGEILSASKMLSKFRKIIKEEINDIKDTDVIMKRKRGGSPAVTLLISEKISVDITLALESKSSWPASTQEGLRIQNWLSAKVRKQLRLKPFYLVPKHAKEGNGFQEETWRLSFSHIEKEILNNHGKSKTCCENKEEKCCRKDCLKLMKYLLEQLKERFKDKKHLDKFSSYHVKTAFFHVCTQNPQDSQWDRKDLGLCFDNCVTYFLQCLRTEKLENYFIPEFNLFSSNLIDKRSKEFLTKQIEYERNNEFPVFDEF

As to `C[C@H]1C(=O)NCC(C)(C)c2c1c1c(NC(=O)CO)cc(Cl)c(Cl)c1n2C` (single isomer, unassigned) [Example 135, (R)—N-(7,8-Dichloro-1,5,5,6-tetramethyl-2-oxo-1,2,3,4,5,6-hexahydroazepino[4,5-b]indol-10-yl)-2-hydroxyacetamide or (S)—N-(7,8-Dichloro-1,5,5,6-tetramethyl-2-oxo-1,2,3,4,5,6-hexahydroazepino[4,5-b]indol-10-yl)-2-hydroxyacetamide], the IC50 in test [1] was ≥ 10000 nM; in test [2] it was 20200 nM.

Consider `O=C1Cc2c([nH]c3c(Cl)c(Cl)cc(-c4cn[nH]c4)c23)CCN1` [Example 19, 7,8-Dichloro-10-(1H-pyrazol-4-yl)-3,4,5,6-tetrahydroazepino[4,5-b]indol-2(1H)-one], for which the IC50 in test [1] was > 10000 nM; in test [2], 93.6 nM.

With `Cn1ncc(-c2cc(Cl)c(Cl)c3[nH]c4c(c23)CC(=O)NCC4CC(C)(C)O)n1` (centres unmarked) [Example 102, 7,8-Dichloro-5-(2-hydroxy-2-methylpropyl)-10-(2-methyl-2H-1,2,3-triazol-4-yl)-3,4,5,6-tetrahydroazepino[4,5-b]indol-2(1H)-one], the IC50 in test [1] was 727 nM; in test [2], 23.2 nM.

On to `CC1C(=O)NCCc2[nH]c3c(Cl)c(Cl)cc(NCCC(F)F)c3c21` (centres unmarked) [Example 71, 7,8-Dichloro-10-((3,3-difluoropropyl)amino)-1-methyl-3,4,5,6-tetrahydroazepino[4,5-b]indol-2(1H)-one], for which the IC50 in test [1] is 2320 nM; in test [2], 43 nM.

For `CC1C(=O)NCCc2[nH]c3c(Cl)c(Cl)cc(OC[C@H]4CCO4)c3c21` (stereo partly drawn) [Example 180, 7,8-Dichloro-1-methyl-10-(((R)-oxetan-2-yl)methoxy)-3,4,5,6-tetrahydroazepino[4,5-b]indol-2(1H)-one], the figures for the IC50 in test [1] and in test [2] were 793 nM and 23.7 nM, respectively.

Regarding `CCOc1cc(Cl)c(Cl)c2[nH]c3c(c12)[C@H](C)C(=O)NCC3` (single isomer, unassigned) [Example 15A], the IC50 was determined as 793 nM in test [1] and 22.4 nM in test [2].

Take `COCC(=O)Nc1cc(Cl)c(Cl)c2[nH]c3c(c12)[C@@H](C)C(=O)NCC3` (single isomer, unassigned) [Example 41]: the IC50 in test [1] was > 10000 nM; in test [2], 7170 nM.

For the compound `C[C@@H](O)CNc1cc(Cl)c(Cl)c2c1c1c(n2C)CCNC(=O)[C@@H]1C` (single isomer, unassigned) [Example 100], the IC50 in test [1] turned out to be 1130 nM; in test [2], 30.4 nM.

As to `C[C@@H](O)CNc1cc(Cl)c(Cl)c2c1c1c(n2C)CCNC(=O)[C@@H]1C` (single isomer, unassigned) [Example 101], the IC50 in test [1] is > 10000 nM; in test [2], 1260 nM.

Take `COCC(=O)Nc1cc(Cl)c(Cl)c2[nH]c3c(c12)C(C)C(=O)NCC3` (centres unmarked) [Example 39, N-(7,8-Dichloro-1-methyl-2-oxo-1,2,3,4,5,6-hexahydroazepino[4,5-b]indol-10-yl)-2-methoxyacetamide]: the half-inhibitory concentration (IC50) in test [1] amounted to 892 nM; in test [2], 54.4 nM.

Consider `CC(C)(O)C[C@@H]1CNC(=O)Cc2c1[nH]c1c(Cl)c(Cl)cc(OCC#N)c21` (single isomer, unassigned) [Example 108], for which the IC50 in test [1] is 676 nM; in test [2], 25.7 nM.

Turning to `O=C1Cc2c([nH]c3c(Cl)c(Cl)cc(NCCCO)c23)CCN1` [Example 22, 7,8-Dichloro-10-((3-hydroxypropyl)amino)-3,4,5,6-tetrahydroazepino[4,5-b]indol-2(1H)-one], the values for the IC50 in test [1] and in test [2] were 4580 nM and 45.9 nM, respectively.

In the case of `Cn1ncc(-c2cc(Cl)c(Cl)c3[nH]c4c(c23)CC(=O)NCC4CCNCC(F)(F)F)n1` (centres unmarked) [Example 112, 7,8-Dichloro-10-(2-methyl-2H-1,2,3-triazol-4-yl)-5-(2-((2,2,2-trifluoroethyl)amino)ethyl)-3,4,5,6-tetrahydroazepino[4,5-b]indol-2(1H)-one], the IC50 in test [1] is 2600 nM; in test [2], 51.5 nM.

Take `CCC1C(=O)NCCc2[nH]c3c(Cl)c(Cl)cc(NC(=O)CO)c3c21` (centres unmarked) [Example 11, N-(7,8-Dichloro-1-ethyl-2-oxo-1,2,3,4,5,6-hexahydroazepino[4,5-b]indol-10-yl)-2-hydroxyacetamide]: the IC50 in test [1] came to 1760 nM; in test [2] it was 45.4 nM.

Regarding `C[C@H]1C(=O)NCCc2c1c1c(NC(=O)CO)cc(Cl)c(Cl)c1n2C(F)F` (single isomer, unassigned) [Example 145, (R)—N-(7,8-Dichloro-6-(difluoromethyl)-1-methyl-2-oxo-1,2,3,4,5,6-hexahydroazepino[4,5-b]indol-10-yl)-2-hydroxyacetamide or (S)—N-(7,8-Dichloro-6-(difluoromethyl)-1-methyl-2-oxo-1,2,3,4,5,6-hexahydroazepino[4,5-b]indol-10-yl)-2-hydroxyacetamide], the values for the IC50 in test [1] and in test [2] were 287 nM and 12.3 nM, respectively.

For the compound `COCC(=O)Nc1cc(Cl)c(Cl)c2[nH]c3c(c12)[C@@H](C)C(=O)NCC3` (single isomer, unassigned) [Example 40], the half-maximal inhibitory concentration (IC50) in test [1] came out at 787 nM; in test [2], 27.3 nM.

In the case of `Cn1ncc(-c2cc(Cl)c(Cl)c3c2c2c4n3CCC4CNC(=O)C2)n1` (centres unmarked) [Example 116, 8,9-Dichloro-11-(2-methyl-2H-1,2,3-triazol-4-yl)-1,3,4,4a, 5,6-hexahydro-2H-azepino[3,4,5-gh]benzo[b]pyrrolizin-2-one], the IC50 in test [1] came to 640 nM; in test [2], 14.8 nM.

`Nc1cncc(-c2cc(Cl)c(Cl)c3[nH]c4c(c23)CC(=O)NCC4)n1` [Example 34, 10-(6-Aminopyrazin-2-yl)-7,8-dichloro-3,4,5,6-tetrahydroazepino[4,5-b]indol-2(1H)-one]: the results for the IC50 in test [1] and in test [2] were 1730 nM and 39.5 nM, respectively.

Regarding `C[C@H]1C(=O)NCCc2[nH]c3c(Cl)c(Cl)cc(NCC(F)(F)CO)c3c21` (single isomer, unassigned) [Example 68, (R)-7,8-Dichloro-10-((2,2-difluoro-3-hydroxypropyl)amino)-1-methyl-3,4,5,6-tetrahydroazepino[4,5-b]indol-2(1H)-one or (S)-7,8-Dichloro-10-((2,2-difluoro-3-hydroxypropyl)amino)-1-methyl-3,4,5,6-tetrahydroazepino[4,5-b]indol-2(1H)-one], the IC50 is 490 nM in test [1] and 8.44 nM in test [2].

On to `C[C@@H]1C(=O)NCCc2[nH]c3c(Cl)c(Cl)cc(OCC(N)=O)c3c21` (single isomer, unassigned) [Example 17B], for which the IC50 in test [1] was determined as 4080 nM; in test [2], 1540 nM.

With `Cn1ncc(-c2cc(Cl)c(Cl)c3[nH]c4c(c23)CC(=O)NCC4)n1` [Example 2, 7,8-Dichloro-10-(2-methyl-2H-1,2,3-triazol-4-yl)-3,4,5,6-tetrahydroazepino[4,5-b]indol-2(1H)-one], the results for the IC50 in test [1] and in test [2] were 819 nM and 20.5 nM, respectively.

For `Cn1ncc(-c2cc(Cl)c(Cl)c3c2c2c(n3C)C(CC(C)(C)O)CNC(=O)C2)n1` (centres unmarked) [Example 105, 7,8-Dichloro-5-(2-hydroxy-2-methylpropyl)-6-methyl-10-(2-methyl-2H-1,2,3-triazol-4-yl)-3,4,5,6-tetrahydroazepino[4,5-b]indol-2(1H)-one], the IC50 in test [1] is 3250 nM; in test [2] it was 38.8 nM.

On to `CC1C(=O)NCCc2[nH]c3c(Cl)c(Cl)cc(OCCO)c3c21` (centres unmarked) [Example 18, 7,8-Dichloro-10-(2-hydroxyethoxy)-1-methyl-3,4,5,6-tetrahydroazepino[4,5-b]indol-2(1H)-one], for which the results for the IC50 in test [1] and in test [2] were 2070 nM and 70.9 nM, respectively.

Take `C[C@@H](O)CNc1cc(Cl)c(Cl)c2c1c1c(n2C)CCNC(=O)[C@@H]1C` (single isomer, unassigned) [Example 99]: the IC50 is > 10000 nM in test [1] and 1640 nM in test [2].

With `COCC[C@@H]1CNC(=O)[C@H](C)c2c1[nH]c1c(Cl)c(Cl)cc(NCCO)c21` (racemic) [Example 170, cis 7,8-Dichloro-10-((2-hydroxyethyl)amino)-5-(2-methoxyethyl)-1-methyl-3,4,5,6-tetrahydroazepino[4,5-b]indol-2(1H)-one], the values for the IC50 in test [1] and in test [2] were 473 nM and 27.7 nM, respectively.

Consider `Cn1ncc(-c2cc(Cl)c(Cl)c3[nH]c4c(c23)CC(=O)NCC4CC(=O)O)n1` (racemic) [Example 5, 2-(7,8-Dichloro-10-(2-methyl-2H-1,2,3-triazol-4-yl)-2-oxo-1,2,3,4,5,6-hexahydroazepino[4,5-b]indol-5-yl)acetic acid], for which the IC50 in test [1] is > 10000 nM; in test [2], 5.12 nM.

As for `C[C@@H]1CNC(=O)[C@@H](C)c2c1[nH]c1c(Cl)c(Cl)cc(NC(=O)CO)c21` (single isomer, unassigned) [Example 160, N-((1S,5R)-7,8-Dichloro-1,5-dimethyl-2-oxo-1,2,3,4,5,6-hexahydroazepino[4,5-b]indol-10-yl)-2-hydroxyacetamide or N-((1R,5S)-7,8-Dichloro-1,5-dimethyl-2-oxo-1,2,3,4,5,6-hexahydroazepino[4,5-b]indol-10-yl)-2-hydroxyacetamide], the figures for the IC50 in test [1] and in test [2] were 256 nM and 13 nM, respectively.

Consider `C[C@@H](O)CNc1cc(Cl)c(Cl)c2[nH]c3c(c12)[C@@H](C)C(=O)NCC3` (single isomer, unassigned) [Example 55], for which the IC50 in test [1] is 1920 nM; in test [2], 46.5 nM.

The values are drawn from patent US20240246979A1, “cGAS INHIBITORS” (Eli Lilly and Company, priority 2022, published 2024).
